Test results as given in patent publication US8623885B2, “Fused tricyclic dual inhibitors of CDK 4/6 and FLT3” (Amgen Inc., priority 2011, dated 2014).

How the values were obtained:
[1] = target: FLT3 enzyme (GST-FLT3 fusion) (Homo sapiens (Human), UniProt P36888); test: FLT3 HTRF kinase assay; assay type: biochemical; settings: 116 μM ATP
Procedure: The FLT3 inhibitory activity of the CDK4/6-FLT3 inhibitors was determined with a HTRF kinase assay. The FLT3 enzyme (GST-FLT3 fusion) was purchased from Carna Biosciences. An ULight-labeled synthetic peptide derived from human Janus kinase 1 (aa1015-1027, ULight-JAK1, PerkinElmer) was utilized as the phosphoacceptor substrate. The assay was conducted in a 384-well white OptiPlate (PerkinElmer). The 20 μL reaction mixture contained 50 nM ULight-JAK1, 116 μM ATP, 0.0385 ng/μL FLT3 and dilutions of test compounds in the kinase buffer (50 mM Hepes, pH 7.6, 1 mM EGTA, 10 mM MgCl2, 2 mM DTT, and 0.005% Tween 20). The reaction was allowed to proceed for 1 hour at room temperature and was stopped by adding 20 μL of 10 mM EDTA, 2 nM LANCE® Eu-W1024 anti-phospho-tyrosine antibody in LANCE® detection buffer (PerkinElmer). The plates were incubated at room temperature for 2 hours after addition of detection reagents and then read on an Envision multimode reader (PerkinElmer).
(§1) IC50 values of the compounds in the above assays were determined by non-linear regression analysis using Prism (GraphPad Software).

CDK4/Cyclin D1 = CDK4/Cyclin D1 (Homo sapiens (Human), UniProt P11802); test: CDK4 filtration kinase assay; assay type: biochemical; settings: CDK4/Cyclin D1, Rb fragment substrate, [33P]-ATP filtration assay
Procedure: The CDK4 and CDK1 inhibitory activity of the CDK4/6-FLT3 inhibitors was determined with a filtration kinase assay. The compounds, kinase and substrate diluted in the kinase buffer (20 mM Tris, pH7.4, 50 mM NaCl, 1 mM DTT, 0.1% BSA) were sequentially added to a 96-well Multiscreen HTS filtration plate (Millipore). The final 100 μL reaction mixture in each well contained 0.3 μg of CDK4/Cyclin D1 or CDK1/Cyclin B (Cell Signaling Technology), 1 μg of Rb fragment (aa773-928, Millipore) for the CDK4 assay or 5 μg of histone H1 for the CDK1 assay and 1 μCi of [^33P]-ATP. The mixture was incubated at room temperature for 1 hour. The proteins in the reaction were then precipitated and washed with cold TCA solution using an aspiration/filtration vacuum system. The plates were dried at room temperature, and the retained radioactivity was measured by scintillation counting.
as §1

MOLM13 cells = test: [14C]-thymidine incorporation cell proliferation assay, MOLM13; assay type: cell-based, human
Procedure: The cell proliferation inhibition potency of the CDK4/6-FLT3 inhibitors was determined by using a [^14C]-thymidine incorporation assay. Exponentially growing cells (MOLM-13, Colo-205, etc.) were seeded in a 96-well Cytostar T plate (GE Healthcare Biosciences) at a density of 5×10^3 cells/well and incubated overnight. Serially diluted compounds and 0.1 μCi of [^14C]-thymidine (GE Healthcare Biosciences) were added to each well on the following day. After 72 hour incubation, isotope incorporation was determined with a β plate counter (Wallac). MOLM13 is a human AML tumor cell line expressing FLT3, FLT3^ITD and wild type Rb.
as §1

[2] = Homo sapiens, MOLM-13, 72 hour incubation

FLT3 enzyme (GST-FLT3 fusion), sequence (P36888 27-993): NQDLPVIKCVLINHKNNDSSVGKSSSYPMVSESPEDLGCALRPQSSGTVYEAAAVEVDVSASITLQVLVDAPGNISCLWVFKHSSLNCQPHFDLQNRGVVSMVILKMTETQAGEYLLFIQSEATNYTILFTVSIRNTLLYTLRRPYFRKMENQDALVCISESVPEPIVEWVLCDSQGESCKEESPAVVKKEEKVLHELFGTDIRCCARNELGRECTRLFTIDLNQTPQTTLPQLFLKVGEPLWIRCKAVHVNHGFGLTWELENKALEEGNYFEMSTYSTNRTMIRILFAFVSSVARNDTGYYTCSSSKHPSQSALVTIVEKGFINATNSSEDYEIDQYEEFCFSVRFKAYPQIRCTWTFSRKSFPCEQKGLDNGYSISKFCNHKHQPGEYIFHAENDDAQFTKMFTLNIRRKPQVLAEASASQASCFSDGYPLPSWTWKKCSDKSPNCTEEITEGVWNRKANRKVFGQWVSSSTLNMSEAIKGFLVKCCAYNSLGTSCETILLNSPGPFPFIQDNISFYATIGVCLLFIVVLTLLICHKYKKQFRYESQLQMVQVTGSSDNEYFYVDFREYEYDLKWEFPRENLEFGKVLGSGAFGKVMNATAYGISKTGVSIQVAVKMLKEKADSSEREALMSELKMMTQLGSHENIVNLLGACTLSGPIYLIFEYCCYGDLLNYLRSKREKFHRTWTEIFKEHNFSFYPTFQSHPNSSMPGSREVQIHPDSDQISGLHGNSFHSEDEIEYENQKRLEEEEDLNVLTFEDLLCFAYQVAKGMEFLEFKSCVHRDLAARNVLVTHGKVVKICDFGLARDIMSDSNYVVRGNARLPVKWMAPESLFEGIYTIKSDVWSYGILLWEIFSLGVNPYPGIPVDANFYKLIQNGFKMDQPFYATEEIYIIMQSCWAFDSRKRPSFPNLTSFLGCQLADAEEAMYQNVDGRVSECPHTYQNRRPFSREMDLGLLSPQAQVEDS
CDK4/Cyclin D1, sequence (P11802 whole entry, the tested form may be a part): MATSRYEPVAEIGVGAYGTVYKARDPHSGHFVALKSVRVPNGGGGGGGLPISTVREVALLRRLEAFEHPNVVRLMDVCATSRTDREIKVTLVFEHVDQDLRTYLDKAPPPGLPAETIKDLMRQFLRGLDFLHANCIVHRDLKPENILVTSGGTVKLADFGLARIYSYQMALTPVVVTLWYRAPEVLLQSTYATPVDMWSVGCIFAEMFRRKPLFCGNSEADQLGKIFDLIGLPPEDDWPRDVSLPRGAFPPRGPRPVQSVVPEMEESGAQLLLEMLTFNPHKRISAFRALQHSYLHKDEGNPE
CDK4/Cyclin D1, sequence (P24385 whole entry partner, the tested form may be a part): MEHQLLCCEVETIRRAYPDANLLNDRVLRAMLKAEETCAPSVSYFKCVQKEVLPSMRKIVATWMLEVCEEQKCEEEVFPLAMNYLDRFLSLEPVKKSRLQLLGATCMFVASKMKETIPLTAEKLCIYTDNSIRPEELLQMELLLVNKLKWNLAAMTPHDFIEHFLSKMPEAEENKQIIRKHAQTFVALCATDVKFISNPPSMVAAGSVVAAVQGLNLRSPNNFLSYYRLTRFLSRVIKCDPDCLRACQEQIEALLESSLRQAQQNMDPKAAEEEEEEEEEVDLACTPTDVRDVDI

Compound | IC50 [1] [nM] | IC50 (CDK4/Cyclin D1) [nM] | IC50 (MOLM13 cells; 72 hour incubation) [nM] | IC50 (MOLM13 cells; [2]) [nM]
CC(=O)N1Cc2ccc(Nc3ncc4c5ccncc5n([C@H]5CC[C@H](C)CC5)c4n3)nc2[C@H](C)C1 (single isomer, unassigned) [Example 18a, 1((R)-8-Methyl-2-((9-((1r,4R)-4-methylcyclohexyl)-9H-pyrido[4′,3′:4,5]pyrrolo[2,3-d]pyrimidin-2-yl)amino)-7,8-dihydro-1,6-naphthyridin-6(5H)-yl)ethanone or 1((S)-8-methyl-2-((9-((1r,4S)-4-methylcyclohexyl)-9H-pyrido[4′,3′:4,5]pyrrolo[2,3-d]pyrimidin-2-yl)amino)-7,8-dihydro-1,6-naphthyridin-6(5H)-yl)ethanone] | 1.6 | 18.8 | 24.2 | –
CC(=O)N1Cc2ccc(Nc3ncc4c5ccncc5n([C@H]5CC[C@H](C)CC5)c4n3)nc2[C@@H](C)C1 (single isomer, unassigned) [Example 18b, 1-((R)-8-Methyl-2-((9-((1 r,4R)-4-methylcyclohexyl)-9H-pyrido[4′,3′:4,5]pyrrolo[2,3-d]pyrimidin-2-yl)amino)-7,8-dihydro-1,6-naphthyridin-6(5H)-yl)ethanone or 1-((S)-8-methyl-2-09-((1r,4S)-4-methylcyclohexyl)-9H-pyrido[4′,3′:4,5]pyrrolo[2,3-d]pyrimidin-2-yl)amino)-7,8-dihydro-1,6-naphthyridin-6(5H)-yl)ethanone] | 2.3 | 463 | 20 | –
C[C@H]1CC[C@H](n2c3cnccc3c3cnc(Nc4ccc5c(n4)CCNC5)nc32)CC1 [Example 1, 9-((1r,4r)-4-Methylcyclohexyl)-N-(5,6,7,8-tetrahydro-1,6-naphthyridin-2-yl)-9H-pyrido[4′,3′:4,5]pyrrolo[2,3-d]pyrimidin-2-amine] | 1.3 | 2.1 | – | 15.2
CC(=O)N1CCc2nc(Nc3ncc4c5ccncc5n([C@H]5CC[C@H](C)CC5)c4n3)ccc2C1 [Example 2, 1-(2-((9-((1r,4r)-4-Methylcyclohexyl)-9H-pyrido[4′,3′:4,5]pyrrolo[2,3-d]pyrimidin-2-yl)amino)-7,8-dihydro-1,6-naphthyridin-6(5H)-yl)ethanone] | 3.2 | 4.5 | – | 22.5
C[C@H]1CC[C@H](n2c3cnccc3c3cnc(Nc4ccc5c(n4)CCN(CCO)C5)nc32)CC1 [Example 3, 2-(2-((9-((1r,4r)-4-Methylcyclohexyl)-9H-pyrido[4′,3′:4,5]pyrrolo[2,3-d]pyrimidin-2-yl)amino)-7,8-dihydro-1,6-naphthyridin-6(5H)-yl)ethanol] | 1.8 | 2.6 | – | 14.8
C[C@H]1CC[C@H](n2c3cnccc3c3cnc(Nc4ccc5c(n4)CCN(CCCO)C5)nc32)CC1 [Example 4, 3-(2-((9-((1r,4r)-4-Methylcyclohexyl)-9H-pyrido[4′,3′:4,5]pyrrolo[2,3-d]pyrimidin-2-yl)amino)-7,8-dihydro-1,6-naphthyridin-6(5H)-yl)propan-1-ol] | 2 | 4.6 | – | 21.1
C[C@H]1CC[C@H](n2c3cnccc3c3cnc(Nc4ccc5c(n4)CCN(C(=O)C(=O)O)C5)nc32)CC1 [Example 6, 2-(2-((9-((1r,4r)-4-Methylcyclohexyl)-9H-pyrido[4′,3′:4,5]pyrrolo[2,3-d]pyrimidin-2-yl)amino)-7,8-dihydro-1,6-naphthyridin-6(5H)-yl)-2-oxoacetic acid] | 3.3 | 120 | – | 46
C[C@H]1CC[C@H](n2c3cnccc3c3cnc(Nc4ccc5c(n4)CCN(CCC(F)(F)F)C5)nc32)CC1 [Example 7, 9-((1r,4r)-4-Methylcyclohexyl)-N-(6-(3,3,3-trifluoropropyl)-5,6,7,8-tetrahydro-1,6-naphthyridin-2-yl)-9H-pyrido[4′,3′:4,5]pyrrolo[2,3-d]pyrimidin-2-amine] | 21.4 | – | – | 206
C[C@H]1CC[C@H](n2c3cnccc3c3cnc(Nc4ccc5c(n4)C(O)CN(CCO)C5)nc32)CC1 (stereo partly shown) [Example 17, 6-(2-Hydroxyethyl)-2-((9-((1r,4r)-4-methylcyclohexyl)-9H-pyrido[4′,3′:4,5]pyrrolo[2,3-d]pyrimidin-2-yl)amino)-5,6,7,8-tetrahydro-1,6-naphthyridin-8-ol] | – | – | – | 21.9
C[C@H]1CC[C@H](n2c3cnccc3c3cnc(Nc4ccc5c(n4)CNCC5)nc32)CC1 [Example 23, 9-((1r,4r)-4-Methylcyclohexyl)-N-(5,6,7,8-tetrahydro-1,7-naphthyridin-2-yl)-9H-pyrido[4′,3′:4,5]pyrrolo[2,3-d]pyrimidin-2-amine] | – | 8.6 | – | 1.5
C[C@H]1CC[C@H](n2c3cnccc3c3cnc(Nc4cc5c(cn4)CNCC5)nc32)CC1 [Example 24, 9-((1r,4r)-4-Methylcyclohexyl)-N-(5,6,7,8-tetrahydro-2,7-naphthyridin-3-yl)-9H-pyrido[4′,3′:4,5]pyrrolo[2,3-d]pyrimidin-2-amine] | – | 4.7 | – | 3.5
C[C@H]1CC[C@H](n2c3cnccc3c3cnc(Nc4ccc5c(n4)CN(C(=O)CO)CC5)nc32)CC1 [Example 30, 2-Hydroxy-1-(2-((9-((1r,4r)-4-methylcyclohexyl)-9H-pyrido[4′,3′:4,5]pyrrolo[2,3-d]pyrimidin-2-yl)amino)-5,6-dihydro-1,7-naphthyridin-7(8H)-yl)ethanone] | – | 6.3 | – | 3
C[C@H]1CC[C@H](n2c3cnccc3c3cnc(Nc4cc5c(cn4)CN(C(=O)CO)CC5)nc32)CC1 [Example 31, 2-Hydroxy-1-(6-((9-((1r,4r)-4-methylcyclohexyl)-9H-pyrido[4′,3′:4,5]pyrrolo[2,3-d]pyrimidin-2-yl)amino)-3,4-dihydro-2,7-naphthyridin-2(1H)-yl)ethanone] | – | 35 | – | 6.7
C[C@H](O)C(=O)N1CCc2nc(Nc3ncc4c5ccncc5n([C@H]5CC[C@H](C)CC5)c4n3)ccc2C1 [Example 32, (S)-2-Hydroxy-1-(2-((9-((1r,4r)-4-methylcyclohexyl)-9H-pyrido[4′,3′:4,5]pyrrolo[2,3-d]pyrimidin-2-yl)amino)-7,8-dihydro-1,6-naphthyridin-6(5H)-yl)propan-1-one] | – | 12 | – | 1.8
C[C@@H](O)C(=O)N1CCc2nc(Nc3ncc4c5ccncc5n([C@H]5CC[C@H](C)CC5)c4n3)ccc2C1 [Example 33, (R)-2-hydroxy-1-(2-((9-((1r,4r)-4-methylcyclohexyl)-9H-pyrido[4′,3′:4,5]pyrrolo[2,3-d]pyrimidin-2-yl)amino)-7,8-dihydro-1,6-naphthyridin-6(5H)-yl)propan-1-one] | – | 41 | – | 3.1
CN(C)CC(=O)N1CCc2nc(Nc3ncc4c5ccncc5n([C@H]5CC[C@H](C)CC5)c4n3)ccc2C1 [Example 34, 2-(Dimethylamino)-1-(2-((9-((1r,4r)-4-methylcyclohexyl)-9H-pyrido[4′,3′:4,5]pyrrolo[2,3-d]pyrimidin-2-yl)amino)-7,8-dihydro-1,6-naphthyridin-6(5H)-yl)ethanone] | – | 3 | – | 0.3
CC(C)(C)OC(=O)N1CCc2ccc(Nc3ncc4c5ccncc5n([C@H]5CC[C@H](C)CC5)c4n3)nc2C1 [Example 35, tert-Butyl 2-((9-((1r,4r)-4-methylcyclohexyl)-9H-pyrido[4′,3′:4,5]pyrrolo[2,3-d]pyrimidin-2-yl)amino)-5,6-dihydro-1,7-naphthyridine-7(8H)-carboxylate] | – | 26 | – | 480
CC(C)(C)OC(=O)N1CCc2cc(Nc3ncc4c5ccncc5n([C@H]5CC[C@H](C)CC5)c4n3)ncc2C1 [Example 36, tert-Butyl 6-((9-((1r,4r)-4-methylcyclohexyl)-9H-pyrido[4′,3′:4,5]pyrrolo[2,3-d]pyrimidin-2-yl)amino)-3,4-dihydro-2,7-naphthyridine-2(1H)-carboxylate] | – | 350 | – | –
CCN(CC)CC(=O)N1CCc2nc(Nc3ncc4c5ccncc5n([C@H]5CC[C@H](C)CC5)c4n3)ccc2C1 [Example 37, 2-(Diethylamino)-1-(2-((9-((1r,4r)-4-methylcyclohexyl)-9H-pyrido[4′,3′:4,5]pyrrolo[2,3-d]pyrimidin-2-yl)amino)-7,8-dihydro-1,6-naphthyridin-6(5H)-yl)ethanone] | – | 3 | – | 1.4
